Assay results taken from PubChem BioAssay AID179 (DTP/NCI, 2004).
Where “and” joins values, the source holds several entries; their conditions need not be identical. Equal values may be shown once. Calls of active or inactive are those of the source.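 The calls were made as follows: active = compounds giving half or more protection of infected cells from virus-caused growth loss, again on retest; inactive = the rest.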

System: CEM cells HIV-1 protection, formazan growth assay
Assay: NCI AIDS Antiviral Assay
Settings: for IC50: measured here: growth of uninfected CEM cells
Summary of the method: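 Steps: treat uninfected and HIV-1-infected human CEM cells at five drug levels; quantify growth by soluble formazan; retest any compound reaching 50% protection; classify actives from the retest.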

SMILES: CCc1c(N=[N+]=[N-])c2ccccc2oc1=O
- outcome: inactive

SMILES: CC(=O)Nc1ccc(C(=O)NN2C(=O)C(Cl)C2c2ccc([N+](=O)[O-])cc2)cc1 (stereo not given)
- EC50: > 200 µM
- IC50: 112 µM

SMILES: O=c1[nH]c(O)c(/C=N/C(=S)N=Nc2c(O)[nH]c3ccccc23)c(=O)[nH]1
- EC50: > 200 µM
- IC50: > 200 µM

SMILES: COc1ccc2c(c1)c1c3c(ccc4ncn2c43)N(CCN(C)C)CCN=1
- EC50: > 20 µM
- IC50: 0.324 µM

SMILES: Cc1cc2nc3ccccc3n2c2nc(N)ccc12
- EC50: > 200 µM
- IC50: 6.61 µM

SMILES: O=C1C=CC(=O)[C@H]2C3C=CC(C4C3C3(Cl)C(Cl)=C(Cl)[C@]4(Cl)C3(Cl)Cl)[C@@H]12 (stereo not given in full)
- EC50: > 200 µM
- IC50: 12 µM

SMILES: C[n+]1ccc(-c2nc(-c3cc[n+](C)cc3)nc(-c3cc[n+](C)cc3)n2)cc1
- EC50: > 200 µM
- IC50: 77.6 µM

SMILES: COc1ccc(/C(CC2OC(=O)c3ccccc32)=N\NC(N)=O)cc1 (stereo not given)
- EC50: > 339 µM
- IC50: > 339 µM

SMILES: Clc1cc2ncn(C3CCCO3)c2cc1Cl (stereo not given)
- EC50: > 200 µM
- IC50: 61.7 µM

SMILES: Clc1nc2n(c1/C=C/c1cccs1)CCS2
- EC50: > 200 µM
- IC50: 20.4 µM

SMILES: Clc1ccc(-c2nc3ccc(C45CC6CC(CC(C6)C4)C5)cc3[nH]2)cc1
- EC50: > 100 µM
- IC50: > 100 µM

SMILES: O=C1c2ccccc2C(=O)c2c1ccc1c2N=C(c2ccc(Br)cc2)CC(c2cccc3ccccc23)N1 (stereo not given)
- EC50: > 64.6 µM
- IC50: > 64.6 µM

SMILES: COc1ccc(-c2c(C3=NCCCN3)nnn2-c2ccccc2)cc1
- EC50: > 759 µM
- IC50: 282 µM

SMILES: COc1csc([C@H]2CCC3[C@@H]4CC=C5C[C@@H](O)CC[C@]5(C)C4CC[C@@]32C)n1 (stereo not given in full)
- EC50: > 17.4 µM
- IC50: > 17.4 µM

SMILES: CCN(CC)C(=S)SS(=O)(=O)c1ccccc1C(=O)O
- EC50: > 200 µM
- IC50: 112 µM

SMILES: CC1C2CC3(c4ccccc4)CC(/C2=N\O)/C(=N/O)C1[C@@]3(C)O (stereo not given in full)
- EC50: > 200 µM
- IC50: > 200 µM

SMILES: COC1=CC2C3Cc4c(-c5cc(OC)c(O)c6c5CC5C7C=C(OC)C(=O)CC67CCN5C)cc(OC)c(O)c4C2(CCN3C)CC1=O (stereo not given)
- EC50: > 200 µM
- IC50: > 200 µM and 132 µM and 117 µM

SMILES: C=C1C(=O)OC2C[C@H](C)C3CC(=O)C(C)=C3CC12 (stereo not given in full)
- EC50: > 380 µM
- IC50: 6.61 µM

SMILES: COC(=O)CCSC(=O)Nc1ccccc1Cl
- outcome: inactive

SMILES: CC(SCCCCCCCCCCCCSC(C)C(=O)O)C(=O)O (stereo not given)
- EC50: > 79.4 µM
- IC50: > 79.4 µM

SMILES: CN1C(=O)N(C)C(O)C(Cl)(Br)C1=O (stereo not given)
- EC50: > 200 µM
- IC50: > 200 µM

SMILES: Cc1nc(C(N)=O)c(N)n1CCN1CCN(C(=O)CCCCCCCCCCNC2N=CNc3nc[nH]c32)CC1 (stereo not given)
- outcome: inactive

SMILES: CCOC12OC3=C(CC1CC1=C(CCC1=O)O2)C(=O)CC3 (stereo not given)
- outcome: inactive

SMILES: OCCN(CCO)CCCNc1ccnc2cc(Cl)ccc12
- EC50: > 200 µM
- IC50: 18.2 µM

SMILES: CCOC(=O)CCCSCCCC(=O)CCCSCCCC(=O)OCC
- EC50: > 447 µM
- IC50: 309 µM

SMILES: NC(=O)NCCCC(NC(=O)OCCCCCn1ccc(=O)[nH]c1=O)C(=O)O (stereo not given)
- EC50: > 100 µM
- IC50: > 100 µM

SMILES: COc1ccc2[nH]c3c(C)c4ccnc(NCCCN(C)CCCNC(=O)NCCCN(C)CCCNc5nccc6c(C)c7[nH]c8ccc(OC)cc8c7c(C)c56)c4c(C)c3c2c1
- EC50: > 5.01 µM
- IC50: 0.891 µM

SMILES: O=C(NCc1ccccc1)OCCO
- outcome: inactive

SMILES: O=[N+]([O-])/C(Cl)=C(\NCCO)C(Cl)=C(Cl)Cl
- EC50: > 200 µM
- IC50: 63.1 µM

SMILES: O=C(NC1(C(=O)O)CC1c1ccccc1)c1ccccc1 (stereo not given)
- EC50: > 200 µM
- IC50: > 200 µM

SMILES: CN(C)C=C(S(C)(=O)=O)S(C)(=O)=O
- EC50: > 200 µM
- IC50: 126 µM

SMILES: O=C(O)C(CO)NC(=O)n1c2ccccc2c2ccccc21 (stereo not given)
- EC50: > 832 µM
- IC50: 537 µM

SMILES: O=C(/C=C/c1ccc(OCc2cccc(Cl)c2)cc1)NO
- EC50: > 200 µM
- IC50: 25.7 µM

SMILES: Brc1ccc2c(c1)[C@H]1CCc3c([nH]c4ccccc34)[C@H]1N2
- EC50: > 200 µM
- IC50: 25.7 µM

SMILES: CCOC(=O)c1c(C)nn2c1ccc1ccccc12
- EC50: > 200 µM
- IC50: 110 µM

SMILES: CCNC(=O)c1cc(NC(=O)c2ccc(C(=O)Nc3cc(C(=O)NCC)cc(C4=NCCN4)c3)cc2)cc(C2=NCCN2)c1
- EC50: > 200 µM
- IC50: 87.1 µM

SMILES: COC(=O)C(=O)C(C(=O)C(=O)Nc1nc(=S)[nH][nH]1)c1nc2ccc([N+](=O)[O-])cc2[nH]c1=O (stereo not given)
- EC50: > 282 µM
- IC50: > 282 µM

SMILES: O=C(O)CCCCC[n+]1ccccc1
- EC50: > 200 µM
- IC50: > 200 µM

SMILES: CC(C)COC(=O)c1ccc(N)cc1
- EC50: > 200 µM
- IC50: > 200 µM

SMILES: COC(=O)[C@@H]1C=C[C@H](OC2OC(COC(C)=O)C(OC(C)=O)C(OC(C)=O)C2OC(C)=O)n2c(=O)c3ccccc3c(=O)n21 (stereo not given in full)
- EC50: > 200 µM
- IC50: 10.7 µM

SMILES: CC[N+]12CC[N+](CC)(CC1)C2
- EC50: > 708 µM
- IC50: > 708 µM

SMILES: O=[N+]([O-])c1ccccc1S(=O)(=O)Nc1ccccc1
- outcome: inactive

SMILES: Cc1c2n(c(=O)[nH]c1=O)C1OC(CO)C(O2)C1N=[N+]=[N-] (stereo not given)
- EC50: 135 µM
- IC50: > 200 µM
